US20250170130A1, “MODULATORS OF MYC FAMILY PROTO-ONCOGENE PROTEIN” (Nalo Therapeutics, priority 2022, published 2025)

Key:
[1] = target: T1, MycN (Homo sapiens, UniProt P04198); experiment: Degradation of MycN protein in SK-N-BE(2) cells, JESS/Western blot of lysates; format: cell-based; conditions: SKNBE2 cells, 24 h; for Dmax at 1 µM / Dmax at 3 µM / Dmax at 6 µM / Dmax at 0.5 µM: SKNBE2, 24 h; for Dmax at 1 µM: read-out: % Degradation of MycN (SKNBE2) 24 h, 1 μM; for Dmax at 3 µM: read-out: % Degradation of MycN (SKNBE2) 24 h, 3 μM; for Dmax at 6 µM: read-out: % Degradation of MycN (SKNBE2) 24 h, 6 μM; for Dmax at 0.5 µM: read-out: % Degradation of MycN (SKNBE2) 24 h, 0.5 μM
T1 construct: endogenous in cells; host or cells: SK-N-BE(2)
T1 sequence (P04198 1-464): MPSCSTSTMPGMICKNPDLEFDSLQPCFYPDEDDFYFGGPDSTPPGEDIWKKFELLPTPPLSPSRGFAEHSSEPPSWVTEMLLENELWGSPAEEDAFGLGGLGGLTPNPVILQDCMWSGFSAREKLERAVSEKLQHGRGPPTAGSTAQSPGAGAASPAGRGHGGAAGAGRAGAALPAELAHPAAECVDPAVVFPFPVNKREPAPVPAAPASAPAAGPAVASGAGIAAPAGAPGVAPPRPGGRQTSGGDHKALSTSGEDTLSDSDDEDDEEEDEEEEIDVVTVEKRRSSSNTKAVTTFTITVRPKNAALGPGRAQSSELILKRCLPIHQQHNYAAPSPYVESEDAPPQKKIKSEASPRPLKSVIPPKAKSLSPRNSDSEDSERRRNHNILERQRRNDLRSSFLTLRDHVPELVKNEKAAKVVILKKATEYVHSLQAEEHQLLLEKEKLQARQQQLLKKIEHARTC
Description: (§1) For L363 cells (suspension), 1E6 cells were plated into each well of a 6 well plate. For SK-N-BE(2) cells (adherent), 5E5 cells were plated into each well of a 6 well dish. Cells were cultured for 24 hrs then treated with exemplary compounds at 0.1, 0.5, 1.0, 3.0 and 6.0 mM final assay concentrations plus DMSO control. All compounds were diluted to 10 mM in DMSO. Cells were treated with the compound for 24 hrs, then for both cell types, media containing cells were removed from wells into a 15 ml centrifuge tube, and remaining adherent SK-N-BE(2) cells were also scraped from the wells into the appropriate tubes. Tubes were centrifuged, cells were washed with PBS then re-centrifuged to pellet cells. A RIPA buffer cocktail was added to the cells on ice for 5 mins. Cell lysates were clarified by centrifugation and stored at −80 degrees until required. BCA assay was performed on each lysate to determine the protein concentration.
(§2) Once an appropriate lysate concentration and antibody concentration was determined, samples were screened in the JESS technology (Protein Simple, San Jose, CA—https://www.proteinsimple.com/jess.html).
(§3) Target protein antibodies (n-myc and c-myc) were detected in the chemi-luminescence channel and loading controls (tubulin and GAPDH) were detected using a Near Infra Red (NIR) labeled secondary antibody.
For SK-N-EB2 adherent cells, 5E5 cells in 1.9 mls media were plated into 6 well dishes and incubated for 24 hrs. Exemplary compounds were added (100 ul, 1 in 20 dilution in media) to each well (final assay concentration 6, 3, 1 and […]) together with DMSO control wells and incubated for 24 hrs. Cells were scrapped off the plate, centrifuged, washed with PBS, centrifuged, then a RIPA buffer cocktail added to the cells (100 ul), centrifuged and stored at −80 for later analysis. For L363 suspension cells, 1E6 cells were plated into 24 well dishes (950 ul media) and incubated for 24 hrs. Exemplary compounds were added (50 ul, 1 in 20 dilution in media) to each well (final assay concentration 6, 3, 1 and […]) together with DMSO control wells and incubated for 24 hrs. Cells were aspirated into tubes, centrifuged, washed with PBS, centrifuged, then a RIPA buffer cocktail added to the cells (100 ul), centrifuged and stored at −80 for later analysis.
(§4) For Western blot, a BCA (total protein) assay was run on all samples, these were then run in batches of 5 compounds plus control (DMSO) on each Western blot run—n-myc and c-myc were run in separate experiments in the chemiluminescence channel. Both tubulin and GAPDH were run as loading controls in all lanes in the near infra red channel.

[2] = target: T2, MycC (Homo sapiens, UniProt P01106); experiment: Degradation of MycC protein in L363 cells, JESS/Western blot of lysates; format: cell-based; conditions: L-363 cells, 24 h; for Dmax at 1 µM / Dmax at 0.5 µM / Dmax at 3 µM / Dmax at 6 µM: L-363, 24 h; for Dmax at 1 µM: read-out: % Degradation of MycC (L-363) 24 h, 1 μM; for Dmax at 0.5 µM: read-out: % Degradation of MycC (L-363) 24 h, 0.5 μM; for Dmax at 3 µM: read-out: % Degradation of MycC (L-363) 24 h, 3 μM; for Dmax at 6 µM: read-out: % Degradation of MycC (L-363) 24 h, 6 μM
T2 construct: endogenous in cells; host or cells: L363
Description: as §1, with “Cells were cultured for 24 hrs then treated with exemplary compounds at 0.1, 0.5, 1.0, 3.0 and 6.0 mM final assay concentrations plus DMSO control.” left out
as §2, §3
For SK-N-EB2 adherent cells, 5E5 cells in 1.9 mls media were plated into 6 well dishes and incubated for 24 hrs. […] Cells were scrapped off the plate, centrifuged, washed with PBS, centrifuged, then a RIPA buffer cocktail added to the cells (100 ul), centrifuged and stored at −80 for later analysis. For L363 suspension cells, 1E6 cells were plated into […] (950 ul media) and incubated for 24 hrs. […] Cells were aspirated into tubes, centrifuged, washed with PBS, centrifuged, then a RIPA buffer cocktail added to the cells (100 ul), centrifuged and stored at −80 for later analysis.
as §4

T2 sequence (P01106 whole entry): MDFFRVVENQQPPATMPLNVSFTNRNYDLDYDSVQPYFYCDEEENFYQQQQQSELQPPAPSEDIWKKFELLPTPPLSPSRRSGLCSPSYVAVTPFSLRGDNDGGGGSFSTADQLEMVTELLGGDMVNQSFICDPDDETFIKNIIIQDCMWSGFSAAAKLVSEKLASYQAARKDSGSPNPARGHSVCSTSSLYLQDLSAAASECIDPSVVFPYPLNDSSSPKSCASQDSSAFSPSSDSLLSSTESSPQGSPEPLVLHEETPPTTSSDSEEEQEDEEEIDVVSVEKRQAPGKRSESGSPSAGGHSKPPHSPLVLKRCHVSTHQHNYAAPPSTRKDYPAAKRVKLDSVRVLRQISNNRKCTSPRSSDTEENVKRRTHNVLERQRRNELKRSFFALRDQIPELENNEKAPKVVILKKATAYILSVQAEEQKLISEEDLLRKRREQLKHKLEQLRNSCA

Structure (SMILES) | Dmax at 1 µM [1] | Dmax at 3 µM [1] | Dmax at 6 µM [1] | Dmax at 0.5 µM [1] | other results
c1cc(Nc2cc(C3CC3)[nH]n2)nc(N2CCC(C3CNC3)C2)n1 (racemic) [Compound 39, (±)-2-[3-(azetidin-3-yl)pyrrolidin-1-yl]-N-(5-cyclopropyl-1H-pyrazol-3-yl)pyrimidin-4-amine] | < 20% | 20 to 49% | 20 to 49% |  | Dmax at 1 µM [2]: 20 to 49%
c1cc(Nc2cc(C3CC3)[nH]n2)nc(N2C[C@H]3CNC[C@@H]3C2)n1 (racemic) [Compound 50, N-(5-Cyclopropyl-1H-pyrazol-3-yl)-2-[rac-(3aR,6aR)-2,3,3a,4,6,6a-hexahydro-1H-pyrrolo[3,4-c]pyrrol-5-yl]pyrimidin-4-amine] | 20 to 49% | 50 to 79% | 80 to 100% | 20 to 49% | Dmax at 0.5 µM ([2]; 0.5 μM): 20 to 49%; Dmax at 1 µM [2]: < 20%; Dmax at 3 µM [2]: 20 to 49%; Dmax at 6 µM ([2]; 6 μM): 50 to 79%
CC(N)C1CCCN(c2nccc(Nc3cc(C4CC4)[nH]n3)n2)C1 (single isomer, unassigned) [Compound 159, 2-[3-(1-Aminoethyl)-1-piperidyl]-N-(5-cyclopropyl-1H-pyrazol-3-yl)pyrimidin-4-amine] |  |  | 80 to 100% |  | % Degradation of MycN (SKNBE2) 24 h, 6 μM [1]: **** (degradation 80-100%); Dmax at 0.5 µM ([2]; 0.5 μM): 20 to 49%; Dmax at 6 µM ([2]; 6 μM): 80 to 100%; % Degradation of MycC (L-363) 24 h, 0.5 μM ([2]; 0.5 μM): ** (degradation 20-49%); % Degradation of MycC (L-363) 24 h, 6 μM ([2]; 6 μM): **** (degradation 80-100%)
CNC(C)C1CCCN(c2nccc(Nc3cc(C4CC4)[nH]n3)n2)C1 (single isomer, unassigned) [Compound 162, N-(5-Cyclopropyl-1H-pyrazol-3-yl)-2-[3-[1-(methylamino)ethyl]-1-piperidyl]pyrimidin-4-amine] | 20 to 49% |  | 80 to 100% | 20 to 49% | % Degradation of MycN (SKNBE2) 24 h, 6 μM [1]: **** (degradation 80-100%); Dmax at 0.5 µM ([2]; 0.5 μM): 20 to 49%; Dmax at 1 µM [2]: 20 to 49%; Dmax at 3 µM [2]: 20 to 49%
CN(C)C[C@@H]1CCN(c2nccc(Nc3cc(C4CC4)[nH]n3)n2)C1 (stereo in doubt) [Compound 33, N-(5-Cyclopropyl-1H-pyrazol-3-yl)-2-[rac-(3S)-3-[(dimethylamino)methyl]pyrrolidin-1-yl]pyrimidin-4-amine] | 20 to 49% | 50 to 79% | 50 to 79% | 20 to 49% | 
CNCCCNc1nccc(Nc2cc(C3CC3)[nH]n2)n1 [Compound 34, N^4-(5-cyclopropyl-1H-pyrazol-3-yl)-N^2-[3-(methylamino)propyl]pyrimidine-2,4-diamine] |  |  | < 20% |  | 
CN1CC(C2CN(c3nccc(Nc4cc(C5CC5)[nH]n4)n3)C2)C1 [Compound 46, N-(5-Cyclopropyl-1H-pyrazol-3-yl)-2-[3-(1-methylazetidin-3-yl)azetidin-1-yl]pyrimidin-4-amine] |  |  | < 20% |  | 
CN1C[C@@H]2CN(c3nccc(Nc4cc(C5CC5)[nH]n4)n3)C[C@@H]21 [Compound 52, N-(5-cyclopropyl-1H-pyrazol-3-yl)-2-[(1R,5R)-6-methyl-3,6-diazabicyclo[3.2.0]heptan-3-yl]pyrimidin-4-amine] |  |  | < 20% |  | 
OC1CN(CC23CC(C2)N(c2nccc(Nc4cc(C5CCCC5)[nH]n4)n2)C3)C1 [Compound 70] | < 20% |  | 20 to 49% |  | 
CS(=O)(=O)CCCNCC12CC(C1)N(c1nccc(Nc3cc(C4CCCC4)[nH]n3)n1)C2 [Compound 74, N-(5-Cyclopentyl-1H-pyrazol-3-yl)-2-[4-[(3-methylsulfonylpropylamino)methyl]-2-azabicyclo[2.1.1]hexan-2-yl]pyrimidin-4-amine] | 20 to 49% | 50 to 79% | 80 to 100% | 20 to 49% | 
CNC[C@H]1CN(c2nccc(Nc3cc(C4CCCC4)[nH]n3)n2)CCO1 [Compound 190, N-(5-Cyclopentyl-1H-pyrazol-3-yl)-2-[(2S)-2-(methylaminomethyl)morpholin-4-yl]pyrimidin-4-amine] | 20 to 49% | 50 to 79% | 50 to 79% | 20 to 49% | 
